Read-outs that look alike come from different tables or passages of the source.
What was measured:
DOR-1 [1] = molecular target: T1, DOR-1 (Mus musculus, UniProt P32300); assay: Competition binding against 125I-IBNtxA in DOR-1/CHO membranes
T1 construct: expressed in transfected cells; host or cells: CHO

DOR-1 [2] = molecular target: T1, DOR-1; assay: [35S]GTPγS functional assay, DOR-1 transfected cell membranes; format: biochemical; settings: for IC50: antagonism of 100 nM DPDPE, read-out: DOR-1 IC50
KOR-1 [3] = molecular target: T2, KOR-1 (Mus musculus, UniProt P33534); assay: Competition binding against 125I-IBNtxA in KOR-1/CHO membranes; settings: 125I-IBNtxA (0.1 nM), CHO membranes, cloned mouse receptor; read-out: Affinity (Ki nM) KOR-1
T2 construct: expressed in transfected cells; host or cells: CHO

MOR-1 [4] = molecular target: T3, MOR-1 (Mus musculus, UniProt P42866); assay: Competition binding against 125I-IBNtxA in MOR-1/CHO membranes
T3 construct: expressed in transfected cells; host or cells: CHO

MOR-1 [5] = molecular target: T3, MOR-1; assay: [35S]GTPγS functional assay, MOR-1 transfected cell membranes; format: biochemical; design: Emax: dose or concentration left out as unconfirmed; settings: for EC50: agonist stimulation of [35S]GTPγS binding, read-out: MOR-1 EC50; for Emax: read-out: MOR-1 Emax (%)
CD1 mice = assay: Radiant heat tail flick analgesia, sc, CD1 mice; format: in vivo; settings: Mus musculus, 0.25 h, ED50, cumulative dose-response, tail flick 15 min after sc dose
KOR-1 [6] = molecular target: T2, KOR-1; assay: [35S]GTPγS functional assay, KOR-1 transfected cell membranes; format: biochemical
[7] = 125I-IBNtxA (0.1 nM), CHO membranes, cloned mouse receptor, read-out: Affinity (Ki nM) DOR-1
[8] = agonist stimulation of [35S]GTPγS binding

Row | SMILES | Ki (DOR-1 [1]; [7]) [nM] | Ki (KOR-1 [3]) [nM] | Ki (MOR-1 [4]) [nM] | also measured
1 | Oc1ccc2c3c1O[C@H]1c4[nH]c5ccccc5c4C[C@@]4(O)[C@@H](C2)N(CC2CC2)CC[C@]314 [NTI, Naltrindole, reference compound] | – | – | – | Ki (DOR-1 [1]): 0.46 nM; IC50 (DOR-1 [2]): 0.00072 µM
2 | CC[C@@H]1CN2CC[C@@]3(C(=O)c4c(OC)cccc4N3C)C2C[C@@H]1/C(=C\OC)C(=O)OC (stereo partly drawn) [VM1503, (E)-methyl 2-((1'S,6'S,7'S)-6′-ethyl-4-methoxy-1-methyl-3-oxo-3′,5′,6′,7′,8′,8a′-hexahydro-2′H-spiro[indoline-2,1′-indolizine]-7′-yl)-3-methoxyacrylate] | > 1000 | > 1000 | 375 | –
3 | CC[C@@H]1CN2CC[C@@]3(C(=O)c4c(OC)cccc4N3Cc3ccccc3)C2C[C@@H]1/C(=C\OC)C(=O)OC (stereo partly drawn) [VM1505, (E)-methyl 2-((1'S,6'S,7'S)-1-benzyl-6′-ethyl-4-methoxy-3-oxo-3′,5′,6′,7′,8′,8a′-hexahydro-2′H-spiro[indoline-2,1′-indolizine]-7′-yl)-3-methoxyacrylate] | 258 | 136 | 249 | –
4 | CC[C@@H]1CN2CC[C@]3(Nc4cccc(O)c4C3=O)C2C[C@@H]1/C(=C\OC)C(=O)OC (stereo partly drawn) [VM1507, (E)-methyl 2-((1'S,6'S,7'S)-6′-ethyl-4-hydroxy-3-oxo-3′,5′,6′,7′,8′,8a′-hexahydro-2′H-spiro[indoline-2,1′-indolizine]-7′-yl)-3-methoxyacrylate] | 6.1 | 170 | 1.4 | EC50 (MOR-1 [5]): 0.002 µM; Emax (MOR-1 [5]): 124%; ED50 (CD1 mice): 0.18 mg/kg; IC50 (DOR-1 [2]): 0.293 µM
5 | CC[C@@H]1CN2CC[C@]3(Nc4cccc(OC(C)=O)c4C3=O)C2C[C@@H]1/C(=C\OC)C(=O)OC (stereo partly drawn) [VM1510, (E)-methyl 2-((1'S,6'S,7'S)-4-acetoxy-6′-ethyl-3-oxo-3′,5′,6′,7′,8′,8a′-hexahydro-2′H-spiro[indoline-2,1′-indolizine]-7′-yl)-3-methoxyacrylate] | 20 | 31 | 2.5 | EC50 (MOR-1 [5]): 0.0039 µM; Emax (MOR-1 [5]): 120%; ED50 (CD1 mice): 0.38 mg/kg
6 | CC[C@@H]1CN2CCC3(Nc4c(-c5ccoc5)ccc(OC)c4C3=O)C2C[C@@H]1/C(=C\OC)C(=O)OC (stereo partly drawn) [VM1514, Methyl (E)-2-((6'S,7'S)-6′-ethyl-7-(furan-3-yl)-4-methoxy-3-oxo-2′,3′,6′,7′,8′,8a′-hexahydro-5′H-spiro[indoline-2,1′-indolizin]-7′-yl)-3-methoxyacrylate] | 40 | 119 | 41 | EC50 (MOR-1 [5]): > 1 µM; EC50 (KOR-1 [6]; [8]): 0.04 µM; EC50 (DOR-1 [2]; [8]): 0.244 µM
7 | CC[C@@H]1CN2CCC3(Nc4ccc(Cl)c(OC)c4C3=O)C2C[C@@H]1/C(=C\OC)C(=O)OC (stereo partly drawn) [VM1516, Methyl (E)-2-((6'S,7'S)-5-chloro-6′-ethyl-4-methoxy-3-oxo-2′,3′,6′,7′,8′,8a′-hexahydro-5′H-spiro[indoline-2,1′-indolizin]-7′-yl)-3-methoxyacrylate] | 2.1 | 12 | 0.41 | –
8 | CC[C@@H]1CN2CCc3c([nH]c4ccc(Br)c(OC)c34)C2C[C@@H]1/C(=C\OC)C(=O)OC (stereo partly drawn) [VM1517, Methyl (E)-2-((2S,3S)-9-bromo-3-ethyl-8-methoxy-1,2,3,4,6,7,12,12b-octahydroindolo[2,3-a]quinolizin-2-yl)-3-methoxyacrylate] | 847 | 195 | 104 | –
9 | CC[C@@H]1CN2CCc3c([nH]c4ccc(-c5ccoc5)c(OC)c34)C2C[C@@H]1/C(=C\OC)C(=O)OC (stereo partly drawn) [VM1519, Methyl (E)-2-((2S,3S)-3-ethyl-9-(furan-3-yl)-8-methoxy-1,2,3,4,6,7,12,12b-octahydroindolo[2,3-a]quinolizin-2-yl)-3-methoxyacrylate] | 653 | 129 | 281 | –
10 | CC[C@@H]1CN2CCc3c([nH]c4c(-c5ccoc5)ccc(OC)c34)C2C[C@@H]1/C(=C\OC)C(=O)OC (stereo partly drawn) [VM1520, Methyl (E)-2-((2S,3S)-3-ethyl-11-(furan-3-yl)-8-methoxy-1,2,3,4,6,7,12,12b-octahydroindolo[2,3-a]quinolizin-2-yl)-3-methoxyacrylate] | 617 | 185 | 278 | –
11 | CC[C@@H]1CN2CCc3c([nH]c4ccc(-c5ccccc5)c(OC)c34)C2C[C@@H]1/C(=C\OC)C(=O)OC (stereo partly drawn) [VM1521, Methyl (E)-2-((2S,3S)-3-ethyl-9-(phenyl)-8-methoxy-1,2,3,4,6,7,12,12b-octahydroindolo[2,3-a]quinolizin-2-yl)-3-methoxyacrylate] | > 1000 | 204 | 364 | –
12 | CC[C@@H]1CN2CC[C@@]3(O)C(=Nc4ccc(-c5ccoc5)c(OC)c43)C2C[C@@H]1/C(=C\OC)C(=O)OC (stereo partly drawn) [VM1523, Methyl (E)-2-((2S,3S,7aS)-3-ethyl-9-(furan-3-yl)-7a-hydroxy-8-methoxy-1,2,3,4,6,7,7a,12b-octahydroindolo[2,3-a]quinolizin-2-yl)-3-methoxyacrylate] | 109 | 36 | 36 | –
13 | CC[C@@H]1CN2CC[C@@]3(O)C(=Nc4c(-c5ccoc5)ccc(OC)c43)C2C[C@@H]1/C(=C\OC)C(=O)OC (stereo partly drawn) [VM1524, Methyl (E)-2-((2S,3S,7aS)-3-ethyl-11-(furan-3-yl)-7a-hydroxy-8-methoxy-1,2,3,4,6,7,7a,12b-octahydroindolo[2,3-a]quinolizin-2-yl)-3-methoxyacrylate] | > 1000 | 338 | 117 | –
14 | CC[C@@H]1CN2CC[C@@]3(N4CCCCC4)C(=Nc4cccc(OC)c43)[C@@H]2C[C@@H]1/C(=C\OC)C(=O)OC [VM1526, Methyl (E)-2-((2S,3S,7aS,12bS)-3-ethyl-8-methoxy-7a-(piperidin-1-yl)-1,2,3,4,6,7,7a,12b-octahydroindolo[2,3-a]quinolizin-2-yl)-3-methoxyacrylate] | 369 | 72 | 247 | –
15 | COC(=O)CC1CCN2CC[C@@]3(O)C(=Nc4cccc(OC)c43)C2C1 (stereo partly drawn) [VM1531, Methyl 2-((7aS)-7a-hydroxy-8-methoxy-1,2,3,4,6,7,7a,12b-octahydroindolo[2,3-a]quinolizin-2-yl)acetate] | > 1000 | > 1000 | > 1000 | –
16 | CC[C@@H]1CN2CCc3c(n(Cc4ccccc4)c4cccc(OC)c34)[C@@H]2C[C@@H]1/C(=C\OC)C(=O)OC [VM1533, Methyl (E)-2-((2S,3S,12bS)-12-benzyl-3-ethyl-8-methoxy-1,2,3,4,6,7,12,12b-octahydroindolo[2,3-a]quinolizin-2-yl)-3-methoxyacrylate] | > 1000 | 395 | 93 | –
17 | CC[C@@H]1CN2CCc3c([nH]c4cccc(OC)c34)[C@@H]2C[C@@H]1/C(=C\OC)CO [VM1534, (E)-2-((2S,3S,12bS)-3-ethyl-8-methoxy-1,2,3,4,6,7,12,12b-octahydroindolo[2,3-a]quinolizin-2-yl)-3-methoxyprop-2-en-1-ol] | – | – | > 1000 | –
18 | C=C(COC)[C@H]1C[C@H]2c3[nH]c4cccc(OC)c4c3CCN2C[C@H]1CC [VM1535, (2S,3S,12bS)-3-ethyl-8-methoxy-2-(3-methoxyprop-1-en-2-yl)-1,2,3,4,6,7,12,12b-octahydroindolo[2,3-a]quinolizine] | – | – | > 1000 | –
19 | CC[C@@H]1CN2CCc3c([nH]c4cccc(OC)c34)[C@@H]2C[C@@H]1[C@@H](C)COC [VM1536, (2S,3S,12bS)-3-ethyl-8-methoxy-2-((R)-1-methoxypropan-2-yl)-1,2,3,4,6,7,12,12b-octahydroindolo[2,3-a]quinolizine] | – | – | > 1000 | –
20 | CC[C@@H]1CN2CC[C@@]3(OC)C(=Nc4cccc(OC)c43)[C@@H]2C[C@@H]1/C(=C\OC)C(=O)OC [VM1537, Methyl (E)-2-((2S,3S,7aS,12bS)-3-ethyl-7a,8-dimethoxy-1,2,3,4,6,7,7a,12b-octahydroindolo[2,3-a]quinolizin-2-yl)-3-methoxyacrylate] | 997 | 90 | 190 | –
21 | CC[C@@H]1CN2CCc3c([nH]c4cccc(-c5ccoc5)c34)[C@@H]2C[C@@H]1/C(=C\OC)C(=O)OC [VM1539] | 332 | 14 | – | Ki (MOR-1 [4]; read-out: Affinity (Ki nM) MOR-1, 125I-IBNtxA (0.1 nM), CHO membranes, cloned mouse receptor): 52 nM
22 | CC[C@@H]1CN2CCc3c(n(C)c4cccc(OC)c34)[C@@H]2C[C@@H]1/C(=C\OC)C(=O)OC [VM1541, Methyl (E)-2-((2S,3S,12bS)-3-ethyl-8-methoxy-12-methyl-1,2,3,4,6,7,12,12b-octahydroindolo[2,3-a]quinolizin-2-yl)-3-methoxyacrylate] | > 1000 | 143 | 163 | –
23 | CC[C@@H]1CN2CCC3c4c(cccc4OC)NC3[C@@H]2C[C@@H]1/C(=C\OC)C(=O)OC (stereo partly drawn) [VM1542, Methyl (E)-2-((2S,3S,12bS)-3-ethyl-8-methoxy-1,2,3,4,6,7,7a,12,12a,12b-decahydroindolo[2,3-a]quinolizin-2-yl)-3-methoxyacrylate] | 374 | 329 | 116 | –
24 | Oc1ccc2c3c1O[C@H]1c4[nH]c5c(c4C[C@@]4(O)[C@@H](C2)N(CC2CC2)CC[C@]314)C[C@@]1(O)[C@H]2Cc3ccc(O)c4c3[C@@]1(CCN2CC1CC1)[C@H]5O4 [norBNI, norbinaltorphimine, reference compound] | – | 0.23 | – | IC50 (KOR-1 [6]; antagonism of 100 nM U50,488H, read-out: KOR-1 IC50): 0.0029 µM

— patent publication US12617790B2, “Mitragynine analogs and uses thereof” (Memorial Sloan-Kettering Cancer Center, priority 2015, dated 2026)
